Data reported in patent US20210388031A1, “Designer Peptide Opsonins” (New Jersey Institute of Technology, priority 2020, published 2021).
Where two headings read alike, the source gives them in different places.

What was measured:
[1] = Solubility of nanofibers in aqueous phosphate buffer; assay type: physicochemical
Protocol: (i) SAPs are customizable solid phase peptide synthesized peptides. They are based on the canonical sequence K-(SL)6-K [SEQ.1] which aggregates via β-sheet interactions of the (SL) midblock to form fibers with polar lysine termini.^47,51 These 10-15 nm wide, 1-2 nm tall, 100s nm-μm long nanofibers are highly soluble >40 mg/mL (4w %) in aqueous phosphate buffer, FIG. 2 A-D.^57,58,60
Formed are fibers with polar glutamic acid termini. These ˜10 nm wide×1-2 nm tall, 100s nm-μm long nanofibers are highly soluble >40 mg/mL (4w %) in aqueous phosphate buffer, FIG. 3. […] Given straightforward SPPS synthesis with excellent (>90% crude purity), scalable manufacture (worldwide) of this peptide is assured.

[2] = rats IV
Anti-drug antibodies = conditions: in vivo
A549 cell = A549 cell cytocompatibility; conditions: data not shown
[3] = 37° C., LC/MS, FIG. 6D

CC(=O)N[C@@H](CCCCN)C(=O)N[C@@H](CO)C(=O)N[C@@H](CC(C)C)C(=O)N[C@@H](CO)C(=O)N[C@@H](CC(C)C)C(=O)N[C@@H](CO)C(=O)N[C@@H](CC(C)C)C(=O)N[C@@H](CO)C(=O)N[C@@H](CC(C)C)C(=O)N[C@@H](CO)C(=O)N[C@@H](CC(C)C)C(=O)N[C@@H](CO)C(=O)N[C@@H](CC(C)C)C(=O)N[C@@H](CCCCN)C(N)=O [K-(SL)6-K]
solubility [1]: > 40 mg/mL

Ac-ESLSLSLSLSLSLEGQYKTYIDKNNHYAEDERYK-NH2 (N-terminus and C-terminus assumed) [ESBP3]
safety profile (daily >1 mM @ 1% blood volume (~200 μL) in rats IV): excellent safety profile
clearance [2]: 4 to 6 h
IC50 improved compared to SBP3 alone (SARS-CoV-2): orders of magnitude improved
anti-drug antibodies (ADA) (Anti-drug antibodies): none seen to date

Ac-ESLSLSLSLSLSLEGSALEEGQLKTFLDKFMHELEDLLYQLAL-NH2 (N-terminus and C-terminus assumed) [ESBP2]
adverse reaction, 10 day repeat dosing (rats, 1% blood volume of 1 mM peptides, FIG. 6B): no adverse reaction
IV clearance ([2]; FIG. 6C): approximately 4 hrs
IC50 (SARS-CoV-2): < 10 nM
Plaque Reduction (10 μM, n-4) (SARS-CoV-2): 74%
A549 cell cytocompatibility (A549 cell): excellent
stability of drug formulation [3]: over 10 days

QYKTYIDKNNHYAEDERYK [SBP3]
IC50 (SARS-CoV-2; binding domain alone, binds to the Spike protein): μM-nM

SALEEQLKTFLDKFMHELEDLLYQLAL [SBP2]
Plaque Reduction (10 μM, n-4) (SARS-CoV-2): 88%
